Data on four compounds can be found in patent EP4810052A2, “HCRHR2 SELECTIVE POLYPEPTIDES” (Gubra A/S, priority 2023, dated 2026).

Like-named read-outs stand apart in the source and are kept apart here. Starred links: 1 amine or outer side, 2 acyl side, 3 side chain; linkers in the order of their positions; H or OH if unused. Non-standard residues stand in square brackets, D forms with d. Residues, ends and D or L forms follow the SMILES beside them. Groups on a side chain read outwards from the residue. *: point of attachment. C20 diacid = O=C(O)CCCCCCCCCCCCCCCCCCC(=O)*; Pro(cis-4-F) = O=C(O)[C@@H]1C[C@H](F)CN1; γGlu = O=C(O)[C@H](CCC(=O)[*:2])N[*:1]; NMeI = CC[C@H](C)[C@H](NC)C(=O)O; Nle = CCCC[C@H](N)C(=O)O; Ac5c = NC1(C(=O)O)CCCC1; AEEA = NCCOCCOCC(=O)O; Aib = CC(C)(N)C(=O)O

One assay has as its target T1, hCRHR2 (Homo sapiens, UniProt Q13324).
T1 sequence (Q13324 1-411): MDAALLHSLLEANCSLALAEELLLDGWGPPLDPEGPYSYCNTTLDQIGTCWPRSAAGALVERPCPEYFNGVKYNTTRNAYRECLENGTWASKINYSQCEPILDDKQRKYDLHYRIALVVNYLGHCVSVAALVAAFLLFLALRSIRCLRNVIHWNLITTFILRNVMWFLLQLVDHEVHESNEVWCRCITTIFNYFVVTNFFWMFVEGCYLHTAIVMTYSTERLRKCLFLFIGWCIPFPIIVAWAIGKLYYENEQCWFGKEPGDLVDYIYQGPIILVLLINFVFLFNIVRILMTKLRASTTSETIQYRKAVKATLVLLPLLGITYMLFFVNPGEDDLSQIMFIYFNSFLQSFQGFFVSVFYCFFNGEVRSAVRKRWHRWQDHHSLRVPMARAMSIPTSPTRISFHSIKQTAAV
The assay can be described thus: HTRF cAMP assay, determination of hCRHR2 potency (peptide libraries 5 conc., purified peptides 11 conc.). In kind it is cell-based. In a few lines: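 EC50 derived by variable-slope sigmoid regression of FRET-based cAMP data; cellular cAMP displaced d2-labelled tracer from cryptate anti-cAMP antibody. Stable human CRHR2 CHO-K1 suspension cells, revived from frozen stocks just before the run.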

In a further assay the target is T2, hCRHR1 (Homo sapiens, UniProt P34998).
T2 sequence (P34998 24-415): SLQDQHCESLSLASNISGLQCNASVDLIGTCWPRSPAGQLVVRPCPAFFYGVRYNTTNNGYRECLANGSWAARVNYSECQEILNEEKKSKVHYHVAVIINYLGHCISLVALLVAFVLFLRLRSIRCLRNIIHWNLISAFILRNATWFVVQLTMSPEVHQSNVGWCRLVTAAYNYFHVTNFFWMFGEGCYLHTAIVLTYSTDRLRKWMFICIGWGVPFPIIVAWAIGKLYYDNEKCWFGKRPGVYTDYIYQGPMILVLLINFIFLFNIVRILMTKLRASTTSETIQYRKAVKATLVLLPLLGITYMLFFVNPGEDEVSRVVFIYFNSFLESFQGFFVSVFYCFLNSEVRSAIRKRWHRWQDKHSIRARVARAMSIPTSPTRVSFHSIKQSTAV
In words: HTRF cAMP assay, determination of hCRHR1 potency (peptide libraries 5 conc., purified peptides 11 conc.). In kind it is cell-based. In a few lines: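 Cellular cAMP was read by time-resolved FRET between d2-labelled cAMP and cryptate anti-cAMP antibody. The cells were freshly thawed suspension CHO-K1 cells stably expressing human CRHR1.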
Background: TR-FRET usually uses a lanthanide donor and a delayed reading to cut background.

[1] abbreviates: Table 4, library peptides having X^38 = Nle, read-out: hCRHR2 pEC50 (converted).
[2] abbreviates: Table 4, library peptides having X^38 = Nle, read-out: hCRHR1 pEC50 (converted).
The mark [3] stands for this setting: library peptides, matched molecular pairs L vs Nle in position X^38, read-out: Potency hCRHR2 pEC50 (converted).
Where [4] appears, read: library peptides, matched molecular pairs L vs Nle in position X^38, read-out: Potency hCRHR1 pEC50 (converted).

Regarding `CCCC[C@H](NC(=O)[C@@H](NC(=O)[C@H](CCC(=O)O)NC(=O)[C@H](C)NC(=O)[C@H](CC(N)=O)NC(=O)C(C)(C)NC(=O)[C@H](CCCCNC(=O)COCCOCCNC(=O)COCCOCCNC(=O)CC[C@H](NC(=O)CC[C@H](NC(=O)CCCCCCCCCCCCCCCCCCC(=O)O)C(=O)O)C(=O)O)NC(=O)[C@H](C)NC(=O)[C@H](CCC(N)=O)NC(=O)[C@H](CCC(=O)O)NC(=O)[C@H](CCCNC(=N)N)NC(=O)[C@H](C)NC(=O)[C@H](C)NC(=O)[C@H](CCCNC(=N)N)NC(=O)[C@H](C)NC(=O)[C@H](CCCNC(=N)N)NC(=O)[C@H](C)NC(=O)[C@H](CCC(N)=O)NC(=O)CNC(=O)[C@H](CC(C)C)NC(=O)[C@H](CC(C)C)NC(=O)[C@@H](NC(=O)[C@H](CCC(N)=O)NC(=O)[C@H](CC(C)C)NC(=O)[C@H](CC(C)C)NC(=O)CNC(=O)[C@@H](NC(=O)[C@@H]1CCCN1C(=O)[C@@H](NC(=O)[C@H](CC(=O)O)NC(=O)[C@H](CC(C)C)NC(=O)[C@H](CO)NC(=O)[C@H](CC(C)C)NC(=O)[C@@H](NC(=O)[C@@H](NC)[C@@H](C)CC)C(C)C)C(C)C)[C@@H](C)CC)[C@@H](C)CC)[C@@H](C)CC)C(=O)N[C@@H](C)C(=O)N[C@@H](CCC(=O)O)C(=O)N[C@H](C(N)=O)C(C)C` [compound 123] (H-[NMeI]VLSLDVPIGLLQILLGQARARAAREQAK([AEEA-AEEA-γGlu-γGlu-C20 diacid])[Aib]NAEI[Nle]AEV-NH2), the EC50 on hCRHR2 (setting [1]) was 0.00501 nM; at hCRHR1 (setting [2]), 794 nM.

Take `CCCC[C@H](NC(=O)[C@@H](NC(=O)[C@H](CCC(=O)O)NC(=O)C(C)(C)NC(=O)[C@H](CC(N)=O)NC(=O)[C@@H](NC(=O)[C@H](CCCCNC(=O)COCCOCCNC(=O)COCCOCCNC(=O)CC[C@H](NC(=O)CC[C@H](NC(=O)CCCCCCCCCCCCCCCCCCC(=O)O)C(=O)O)C(=O)O)NC(=O)[C@H](C)NC(=O)[C@H](CCC(N)=O)NC(=O)[C@H](CCC(=O)O)NC(=O)[C@H](CCCNC(=N)N)NC(=O)[C@H](C)NC(=O)[C@H](C)NC(=O)[C@H](CCCNC(=N)N)NC(=O)[C@H](C)NC(=O)[C@H](CCCNC(=N)N)NC(=O)[C@H](C)NC(=O)[C@H](CCC(N)=O)NC(=O)CNC(=O)[C@H](CC(C)C)NC(=O)[C@H](CC(C)C)NC(=O)[C@@H](NC(=O)[C@H](CCC(N)=O)NC(=O)[C@H](CC(C)C)NC(=O)[C@H](CC(C)C)NC(=O)CNC(=O)[C@@H](NC(=O)[C@@H]1CCCN1C(=O)[C@@H](NC(=O)[C@H](CC(=O)O)NC(=O)[C@H](CC(C)C)NC(=O)[C@H](CO)NC(=O)[C@H](CC(C)C)NC(=O)[C@@H](NC(=O)[C@@H](NC)[C@@H](C)CC)C(C)C)C(C)C)[C@@H](C)CC)[C@@H](C)CC)[C@@H](C)O)[C@@H](C)CC)C(=O)N[C@@H](C)C(=O)N[C@@H](CCC(=O)O)C(=O)N[C@H](C(N)=O)C(C)C` [compound 204] (H-[NMeI]VLSLDVPIGLLQILLGQARARAAREQAK([AEEA-AEEA-γGlu-γGlu-C20 diacid])TN[Aib]EI[Nle]AEV-NH2): the EC50 on hCRHR2 (setting [1]) is 0.0251 nM; at hCRHR1 (setting [2]), 1000 nM.

As to `CC[C@H](C)[C@H](N)C(=O)N[C@H](C(=O)N[C@@H](CC(C)C)C(=O)N[C@@H](CO)C(=O)N[C@@H](CC(C)C)C(=O)N[C@@H](CC(=O)O)C(=O)NC1(C(=O)N2C[C@@H](F)C[C@H]2C(=O)N[C@H](C(=O)NCC(=O)N[C@@H](CC(C)C)C(=O)N[C@@H](CC(C)C)C(=O)N[C@@H](CCC(N)=O)C(=O)N[C@H](C(=O)N[C@@H](CC(C)C)C(=O)N[C@@H](CC(C)C)C(=O)N[C@@H](CCC(=O)O)C(=O)N[C@@H](CCC(N)=O)C(=O)N[C@@H](C)C(=O)N[C@@H](CCCNC(=N)N)C(=O)N[C@@H](C)C(=O)N[C@@H](CCCNC(=N)N)C(=O)N[C@@H](C)C(=O)N[C@@H](C)C(=O)N[C@@H](CCCNC(=N)N)C(=O)N[C@@H](CCC(=O)O)C(=O)N[C@@H](CCC(N)=O)C(=O)N[C@@H](C)C(=O)N[C@@H](CCCCNC(=O)COCCOCCNC(=O)COCCOCCNC(=O)CC[C@H](NC(=O)CC[C@H](NC(=O)CCCCCCCCCCCCCCCCCCC(=O)O)C(=O)O)C(=O)O)C(=O)N[C@H](C(=O)N[C@@H](CC(N)=O)C(=O)N[C@@H](C)C(=O)N[C@@H](CCC(=O)O)C(=O)N[C@H](C(=O)N[C@@H](CC(C)C)C(=O)N[C@@H](C)C(=O)N[C@@H](CCC(=O)O)C(=O)N[C@H](C(N)=O)C(C)C)[C@@H](C)CC)[C@@H](C)O)[C@@H](C)CC)[C@@H](C)CC)CCCC1)C(C)C` [compound 86] (H-IVLSLD[Ac5c][Pro(cis-4-F)]IGLLQILLEQARARAAREQAK([AEEA-AEEA-γGlu-γGlu-C20 diacid])TNAEILAEV-NH2), the EC50 on hCRHR2 (setting [3]) was 0.631 nM; on hCRHR1 (setting [4]) it was 3.16 nM.

Take `CCCC[C@H](NC(=O)[C@@H](NC(=O)[C@H](CCC(=O)O)NC(=O)[C@H](C)NC(=O)[C@H](CC(N)=O)NC(=O)[C@@H](NC(=O)[C@H](CCCCNC(=O)COCCOCCNC(=O)COCCOCCNC(=O)CC[C@H](NC(=O)CC[C@H](NC(=O)CCCCCCCCCCCCCCCCCCC(=O)O)C(=O)O)C(=O)O)NC(=O)[C@H](C)NC(=O)[C@H](CCC(N)=O)NC(=O)[C@H](CCC(=O)O)NC(=O)[C@H](CCCNC(=N)N)NC(=O)[C@H](C)NC(=O)[C@H](CO)NC(=O)[C@H](CCCNC(=N)N)NC(=O)[C@H](C)NC(=O)[C@H](CCCNC(=N)N)NC(=O)[C@H](C)NC(=O)[C@H](CCC(N)=O)NC(=O)[C@H](CCC(=O)O)NC(=O)[C@H](CC(C)C)NC(=O)[C@H](CC(C)C)NC(=O)[C@@H](NC(=O)[C@H](CCC(N)=O)NC(=O)[C@H](CC(C)C)NC(=O)[C@H](CC(C)C)NC(=O)CNC(=O)[C@@H](NC(=O)[C@@H]1CCCN1C(=O)[C@@H](NC(=O)[C@H](CC(=O)O)NC(=O)[C@H](CC(C)C)NC(=O)[C@H](CO)NC(=O)[C@H](CC(C)C)NC(=O)[C@@H](NC(=O)[C@@H](N)[C@@H](C)CC)C(C)C)C(C)C)[C@@H](C)CC)[C@@H](C)CC)[C@@H](C)O)[C@@H](C)CC)C(=O)N[C@@H](C)C(=O)N[C@@H](CCC(=O)O)C(=O)N[C@H](C(N)=O)C(C)C` [compound 61] (H-IVLSLDVPIGLLQILLEQARARSAREQAK([AEEA-AEEA-γGlu-γGlu-C20 diacid])TNAEI[Nle]AEV-NH2): the EC50 is 0.1 nM at hCRHR2 (setting [3]) and 1260 nM on hCRHR1 (setting [4]).
